Measurements taken from patent US10660877B2 (BRISTOL-MYERS SQUIBB COMPANY, priority 2016, dated 2020).
Where two headings read alike, the source gives them in different places.

Experiments:
human TLR9 = human TLR9 (Homo sapiens (Human), UniProt Q9NR96); test: TLR9 inhibition reporter assay (HEK-Blue cells, SEAP reporter, ODN2006 stimulation);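 note: compounds tested over 0.05 nM to 50 µM, 22 h incubation, inhibition taken as SEAP signal drop from agonist plus DMSO wells toward a known inhibitor control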
human TLR9, sequence (Q9NR96 26-1032): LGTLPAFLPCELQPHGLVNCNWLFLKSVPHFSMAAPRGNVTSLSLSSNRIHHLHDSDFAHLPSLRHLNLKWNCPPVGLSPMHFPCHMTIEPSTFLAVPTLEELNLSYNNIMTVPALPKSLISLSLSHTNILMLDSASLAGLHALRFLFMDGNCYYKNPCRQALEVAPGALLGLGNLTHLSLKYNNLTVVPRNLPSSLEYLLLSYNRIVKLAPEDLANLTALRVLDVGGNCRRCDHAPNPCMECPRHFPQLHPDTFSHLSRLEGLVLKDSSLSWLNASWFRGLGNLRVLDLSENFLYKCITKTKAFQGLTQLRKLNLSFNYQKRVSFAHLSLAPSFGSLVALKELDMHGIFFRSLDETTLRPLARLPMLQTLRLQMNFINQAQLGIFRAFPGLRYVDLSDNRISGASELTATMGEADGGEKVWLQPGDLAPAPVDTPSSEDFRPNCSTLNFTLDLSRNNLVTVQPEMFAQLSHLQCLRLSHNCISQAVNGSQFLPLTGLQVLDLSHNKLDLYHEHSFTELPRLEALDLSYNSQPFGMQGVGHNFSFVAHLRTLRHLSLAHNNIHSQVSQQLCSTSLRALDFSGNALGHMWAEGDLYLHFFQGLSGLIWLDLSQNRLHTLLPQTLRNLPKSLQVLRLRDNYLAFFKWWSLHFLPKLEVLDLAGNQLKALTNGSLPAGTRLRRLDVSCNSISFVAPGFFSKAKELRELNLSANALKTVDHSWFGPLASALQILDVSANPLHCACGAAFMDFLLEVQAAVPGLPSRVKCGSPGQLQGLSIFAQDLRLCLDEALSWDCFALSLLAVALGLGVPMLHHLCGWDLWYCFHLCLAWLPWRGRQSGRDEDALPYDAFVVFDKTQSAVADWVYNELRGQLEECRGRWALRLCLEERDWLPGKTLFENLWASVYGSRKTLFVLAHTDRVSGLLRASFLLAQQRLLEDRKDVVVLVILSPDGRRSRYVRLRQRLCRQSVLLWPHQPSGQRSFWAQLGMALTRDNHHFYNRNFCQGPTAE

human TLR7 = human TLR7 (Homo sapiens (Human), UniProt Q9NYK1); test: TLR7 inhibition reporter assay (HEK-Blue cells, SEAP reporter, gardiquimod stimulation); format: cell-based
human TLR7, sequence (Q9NYK1 27-1049): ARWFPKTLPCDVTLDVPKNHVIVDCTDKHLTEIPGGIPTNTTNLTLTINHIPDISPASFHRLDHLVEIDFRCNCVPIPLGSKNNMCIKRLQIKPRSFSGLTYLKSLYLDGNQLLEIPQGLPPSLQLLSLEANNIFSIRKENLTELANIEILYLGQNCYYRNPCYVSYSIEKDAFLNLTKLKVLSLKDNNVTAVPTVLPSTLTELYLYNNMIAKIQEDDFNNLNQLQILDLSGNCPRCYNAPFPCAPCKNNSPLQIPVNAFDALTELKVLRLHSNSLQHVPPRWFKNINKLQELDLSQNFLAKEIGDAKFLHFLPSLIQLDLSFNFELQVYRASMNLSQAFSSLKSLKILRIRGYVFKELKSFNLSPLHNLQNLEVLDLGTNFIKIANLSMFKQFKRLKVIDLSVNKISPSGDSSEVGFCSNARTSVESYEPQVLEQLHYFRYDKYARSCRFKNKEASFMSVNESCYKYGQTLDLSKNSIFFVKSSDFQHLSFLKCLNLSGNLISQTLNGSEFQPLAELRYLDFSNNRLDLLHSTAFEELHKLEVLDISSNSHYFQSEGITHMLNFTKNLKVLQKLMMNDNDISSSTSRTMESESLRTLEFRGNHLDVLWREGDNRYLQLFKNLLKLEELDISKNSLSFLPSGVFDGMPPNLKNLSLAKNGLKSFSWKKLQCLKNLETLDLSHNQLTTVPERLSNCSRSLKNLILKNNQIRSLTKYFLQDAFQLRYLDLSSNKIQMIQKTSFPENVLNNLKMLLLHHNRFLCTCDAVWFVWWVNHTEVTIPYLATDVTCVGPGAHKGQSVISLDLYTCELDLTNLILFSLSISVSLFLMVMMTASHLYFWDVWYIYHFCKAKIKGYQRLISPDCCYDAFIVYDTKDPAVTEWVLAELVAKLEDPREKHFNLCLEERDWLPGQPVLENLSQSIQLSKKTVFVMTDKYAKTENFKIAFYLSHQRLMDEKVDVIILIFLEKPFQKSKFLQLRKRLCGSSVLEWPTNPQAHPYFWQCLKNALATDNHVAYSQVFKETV

human TLR8 = human TLR8 (Homo sapiens (Human), UniProt Q9NR97); test: TLR8 inhibition reporter assay (HEK-Blue cells, SEAP reporter, R848 stimulation);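 note: compounds tested from 0.05 nM to 50 µM, 22 h at 37 °C, SEAP measured with HEK-Blue Detection, inhibition relative to agonist plus DMSO versus a known inhibitor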
human TLR8, sequence (Q9NR97 27-1041): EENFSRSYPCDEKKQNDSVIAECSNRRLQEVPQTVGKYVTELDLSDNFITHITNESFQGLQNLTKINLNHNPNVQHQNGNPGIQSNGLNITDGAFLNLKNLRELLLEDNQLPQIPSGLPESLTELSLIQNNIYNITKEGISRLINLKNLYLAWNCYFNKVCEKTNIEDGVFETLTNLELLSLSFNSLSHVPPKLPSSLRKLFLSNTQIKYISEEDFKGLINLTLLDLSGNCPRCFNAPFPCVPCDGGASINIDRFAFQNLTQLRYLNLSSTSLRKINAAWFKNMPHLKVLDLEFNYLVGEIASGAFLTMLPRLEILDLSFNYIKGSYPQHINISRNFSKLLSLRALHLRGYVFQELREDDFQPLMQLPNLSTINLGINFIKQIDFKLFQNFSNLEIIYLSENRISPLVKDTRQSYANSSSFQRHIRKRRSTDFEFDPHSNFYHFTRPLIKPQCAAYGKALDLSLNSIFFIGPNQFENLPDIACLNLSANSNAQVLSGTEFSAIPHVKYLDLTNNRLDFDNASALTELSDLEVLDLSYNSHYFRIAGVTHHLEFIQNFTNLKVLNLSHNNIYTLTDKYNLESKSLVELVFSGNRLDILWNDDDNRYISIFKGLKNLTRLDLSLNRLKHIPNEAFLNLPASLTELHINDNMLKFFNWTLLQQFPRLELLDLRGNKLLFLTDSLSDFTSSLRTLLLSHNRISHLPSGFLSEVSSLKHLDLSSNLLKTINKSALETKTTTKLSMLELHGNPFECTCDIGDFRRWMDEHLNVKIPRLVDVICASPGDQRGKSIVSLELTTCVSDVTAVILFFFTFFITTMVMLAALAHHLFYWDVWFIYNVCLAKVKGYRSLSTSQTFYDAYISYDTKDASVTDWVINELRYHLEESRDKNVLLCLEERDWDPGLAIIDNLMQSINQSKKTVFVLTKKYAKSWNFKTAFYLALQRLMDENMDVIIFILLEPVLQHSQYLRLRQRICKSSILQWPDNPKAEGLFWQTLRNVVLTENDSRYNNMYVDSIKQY

[1] = read-out: TLR9 IC50, HEK-Blue cells overexpressing human TLR9, ODN2006 5 nM
[2] = HEK-Blue cells overexpressing human TLR7, gardiquimod 7.5 μM
[3] = read-out: TLR8 IC50, HEK-Blue cells overexpressing human TLR8, R848 15.9 μM

Row | SMILES | IC50 (human TLR9; read-out: TLR9 IC50, HEK-Blue cells, ODN2006 5 nM) [nM] | IC50 (human TLR7; HEK-Blue cells, gardiquimod 7.5 μM) [nM] | IC50 (human TLR8; read-out: TLR8 IC50, HEK-Blue cells, R848 15.9 μM) [nM] | IC50 (human TLR9; [1]) [nM] | IC50 (human TLR7; [2]) [nM] | IC50 (human TLR8; [3]) [nM] | IC50 (human TLR9; TLR9 IC50, HEK-Blue cells overexpressing human TLR9, ODN2006 5 nM) [nM] | IC50 (human TLR8; TLR8 IC50, HEK-Blue cells overexpressing human TLR8, R848 15.9 μM) [nM]
1 | Cc1cc(-c2[nH]c3ccc(C4CCN(C(=O)C(=O)NCC5CCNCC5)CC4)cc3c2C(C)C)cc(C)n1 [Example 861, 2-(4-(2-(2,6-dimethylpyridin-4-yl)-3-isopropyl-1H-indol-5-yl)piperidin-1-yl)-2-oxo-N-(piperidin-4-ylmethyl)acetamide] | 3420 | 13.5 | 59 |  |  |  |  | 
2 | Cc1cc(-c2[nH]c3ccc(C4CCN(C(=O)[C@H]5CCC[C@@]5(C)N)CC4)cc3c2C(C)C)ccn1 [Example 569, ((1S,2R)-2-amino-2-methylcyclopentyl)(4-(3-isopropyl-2-(2-methylpyridin-4-yl)-1H-indol-5-yl)piperidin-1-yl)methanone] |  |  |  | 912 | 14.4 | 15 |  | 
3 | Cc1cc(-c2[nH]c3ccc(C4CCN(C(=O)CN(C)C(C)C)CC4)cc3c2C(C)C)cc(C)n1 [Example 354, 1-(4-(2-(2,6-dimethylpyridin-4-yl)-3-isopropyl-1H-indol-5-yl)piperidin-1-yl)-2-(isopropyl(methyl)amino)ethan-1-one] |  |  |  | 447 | 3.5 | 11.2 |  | 
4 | CNCC(=O)N1CCC(c2ccc3[nH]c(-c4cc(C)nc(C)c4)c(CC(F)F)c3c2)CC1 [Example 535, 1-(4-(3-(2,2-difluoroethyl)-2-(2,6-dimethylpyridin-4-yl)-1H-indol-5-yl)piperidin-1-yl)-2-(methylamino)ethan-1-one] |  |  |  | 258 | 10 | 86.5 |  | 
5 | Cc1cc(-c2[nH]c3ccc(C4CCN(C(=O)CN5CCOC[C@H]5CO)CC4)cc3c2C(C)C)cc(C)n1 [Example 400, (R)-1-(4-(2-(2,6-dimethylpyridin-4-yl)-3-isopropyl-1H-indol-5-yl)piperidin-1-yl)-2-(3-(hydroxymethyl)morpholino)ethan-1-one] |  |  |  | 451 | 3.4 | 16.8 |  | 
6 | CCc1c(-c2ccnc(C)c2)[nH]c2ccc(C3CCN(CC4CCN(C(C)C)CC4)CC3)cc12 [Example 675, 3-ethyl-5-(1-((1-isopropylpiperidin-4-yl)methyl)piperidin-4-yl)-2-(2-methylpyridin-4-yl)-1H-indole] |  |  |  | 42 | 44.7 | 11.9 |  | 
7 | Cc1cc(-c2[nH]c3ccc(C4CCN(C(=O)C5CCOC(C(C)C)C5)CC4)cc3c2C(C)C)cc(C)n1 (stereo not drawn) [Example 200, (4-(2-(2,6-dimethylpyridin-4-yl)-3-isopropyl-1H-indol-5-yl)piperidin-1-yl)(2-isopropyltetrahydro-2H-pyran-4-yl) methanone] |  |  |  | 11200 | 44.4 | 409 |  | 
8 | CCc1c(-c2ccncc2)[nH]c2ccc(C3CCN(C4CCN(C(C)C)CC4)CC3)cc12 [Example 804, 3-ethyl-5-(1′-isopropyl-[1,4′-bipiperidin]-4-yl)-2-(pyridin-4-yl)-1H-indole] |  |  |  | 82 | 212 | 11.2 |  | 
9 | Cc1cc(-c2[nH]c3ccc(C4CCN(C5CCOC5)CC4)cc3c2C(C)C)c(F)cn1 (stereo not drawn) [Example 725, 2-(5-fluoro-2-methylpyridin-4-yl)-3-isopropyl-5-(1-(tetrahydrofuran-3-yl)piperidin-4-yl)-1H-indole] |  |  |  | 2990 | 3 | 4.5 |  | 
10 | Cc1cc(-c2[nH]c3ccc(C4CCN(CC(=O)N5CCC5)CC4)cc3c2C(C)C)cc(C)n1 [Example 227, 1-(azetidin-1-yl)-2-(4-(2-(2,6-dimethylpyridin-4-yl)-3-isopropyl-1H-indol-5-yl)piperidin-1-yl)ethan-1-one] |  |  |  | 1500 | 3.8 | 9.1 |  | 
11 | Cc1cc(-c2[nH]c3ccc(C4CCN(C5CCOC(C)(C)C5)CC4)cc3c2C(C)C)cc(C)n1 (stereo not drawn) [Example 453, 2-(2,6-dimethylpyridin-4-yl)-5-(1-(2,2-dimethyltetrahydro-2H-pyran-4-yl)piperidin-4-yl)-3-isopropyl-1H-indole] |  |  |  | 255 | 8.5 | 6.5 |  | 
12 | CCN1CCC(N2CCC(c3ccc4[nH]c(-c5ccnc(OC)c5)c(C(C)C)c4c3)CC2)CC1 [Example 801, 5-(1′-ethyl-[1,4′-bipiperidin]-4-yl)-3-isopropyl-2-(2-methoxypyridin-4-yl)-1H-indole] |  |  |  | 740 | 561 | 218 |  | 
13 | Cc1cc(-c2[nH]c3ccc(C4CCN(Cc5c[nH]c(C)n5)CC4)cc3c2C(C)C)cc(C)n1 [Example 426, 2-(2,6-dimethylpyridin-4-yl)-3-isopropyl-5-(1-((2-methyl-1H-imidazol-4-yl)methyl)piperidin-4-yl)-1H-indole] |  |  |  | 90 | 6.1 | 2.6 |  | 
14 | Cc1cc(-c2[nH]c3ccc(C4CCN(C(=O)CCN5CCOCC5)CC4)cc3c2C(C)C)cc(C)n1 [Example 128, 1-(4-(2-(2,6-dimethylpyridin-4-yl)-3-isopropyl-1H-indol-5-yl)piperidin-1-yl)-3-morpholinopropan-1-one] |  |  |  | 730 | 3.9 | 15.5 |  | 
15 | Cc1cc(-c2[nH]c3ccc(C4CCN(Cc5cncnc5)CC4)cc3c2C(C)C)cc(C)n1 [Example 434, 2-(2,6-dimethylpyridin-4-yl)-3-isopropyl-5-(1-(pyrimidin-5-ylmethyl)piperidin-4-yl)-1H-indole] |  |  |  |  | 35.3 |  | 755 | 10.5
16 | CNCCN1CCC(c2ccc3[nH]c(-c4ccnc(C#N)c4)c(C)c3c2)CC1 [Example 755, 4-(3-methyl-5-(1-(2-(methylamino)ethyl)piperidin-4-yl)-1H-indol-2-yl)picolinonitrile] |  |  |  | 599 | 2650 | 86.6 |  | 
17 | Cc1nccc(-c2[nH]c3ccc(C4CCNCC4)cc3c2C(C)C)c1C [Example 30, 2-(2,3-dimethylpyridin-4-yl)-3-isopropyl-5-(piperidin-4-yl)-1H-indole] |  |  |  | 708 | 28.5 | 22.3 |  | 
18 | COc1cc(-c2[nH]c3ccc(C4CCN(C5CCN(CC(C)C)CC5)CC4)cc3c2C(C)C)ccn1 [Example 803, 5-(1′-isobutyl-[1,4′-bipiperidin]-4-yl)-3-isopropyl-2-(2-methoxypyridin-4-yl)-1H-indole] |  |  |  | 986 | 79.7 | 333 |  | 
19 | CNC(=O)CN1CCC(c2ccc3[nH]c(-c4cc(C)nc(C)c4)c(CC(F)F)c3c2)CC1 [Example 532, 2-(4-(3-(2,2-difluoroethyl)-2-(2,6-dimethylpyridin-4-yl)-1H-indol-5-yl)piperidin-1-yl)-N-methylacetamide] |  |  |  | 813 | 17.4 | 81.8 |  | 
20 | Cc1cc(-c2[nH]c3ccc(C4CCN(CC(=O)NC5(C)CC5)CC4)cc3c2C(C)C)cc(C)n1 [Example 251, 2-(4-(2-(2,6-dimethylpyridin-4-yl)-3-isopropyl-1H-indol-5-yl)piperidin-1-yl)-N-(1-methylcyclopropyl)acetamide] |  |  |  | 817 | 4.3 | 9 |  | 
21 | Cc1cnccc1-c1[nH]c2ccc(C3CCNCC3)cc2c1C(C)C [Example 23, 3-isopropyl-2-(3-methylpyridin-4-yl)-5-(piperidin-4-yl)-1H-indole] |  |  |  | 8790 | 97 | 32.3 |  | 
22 | Cc1cc(-c2[nH]c3ccc(C4CCN(C(=O)CNC56CC7CC(CC(C7)C5)C6)CC4)cc3c2C(C)C)cc(C)n1 [Example 342, 2-(adamantan-1-ylamino)-1-(4-(2-(2,6-dimethylpyridin-4-yl)-3-isopropyl-1H-indol-5-yl)piperidin-1-yl)ethan-1-one] |  |  |  | 656 | 26.2 | 67.1 |  | 
23 | CCc1c(-c2ccnc(F)c2)[nH]c2ccc(C3CCN(C4CCN(CC(C)C)CC4)CC3)cc12 [Example 759, 3-ethyl-2-(2-fluoropyridin-4-yl)-5-(1′-isobutyl-[1,4′-bipiperidin]-4-yl)-1H-indole] |  |  |  | 655 | 1520 | 257 |  | 
24 | Cc1cc(-c2[nH]c3ccc(C4CCN(C5CCN(C(C)C)CC5)CC4)cc3c2C(C)C)ccn1 [Example 701, 3-isopropyl-5-(1′-isopropyl-[1,4′-bipiperidin]-4-yl)-2-(2-methylpyridin-4-yl)-1H-indole] |  |  |  | 163 | 6.5 | 5.8 |  | 
25 | Cc1ccc(CN2CCC(c3ccc4[nH]c(-c5cc(C)nc(C)c5)c(C(C)C)c4c3)CC2)cn1 [Example 437, 2-(2,6-dimethylpyridin-4-yl)-3-isopropyl-5-(1-((6-methylpyridin-3-yl)methyl)piperidin-4-yl)-1H-indole] |  |  |  | 267 | 8.6 | 6.7 |  | 
26 | Cc1cnc(N)cc1-c1[nH]c2ccc(C3CCNCC3)cc2c1C(C)C [Example 9, 4-(3-isopropyl-5-(piperidin-4-yl)-1H-indol-2-yl)-5-methylpyridin-2-amine] |  |  |  | 562 | 75.1 | 22.1 |  | 
27 | Cc1cc(-c2[nH]c3ccc(C4CCN(Cc5cncs5)CC4)cc3c2C(C)C)c(C)cn1 [Example 687, 5-((4-(2-(2,5-dimethylpyridin-4-yl)-3-isopropyl-1H-indol-5-yl)piperidin-1-yl)methyl)thiazole] |  |  |  | 4920 | 25.6 | 1.8 |  | 
28 | CCc1c(-c2ccnc(C)c2)[nH]c2c(F)cc(C3CCNCC3)cc12 [Example 81, 3-ethyl-7-fluoro-2-(2-methylpyridin-4-yl)-5-(piperidin-4-yl)-1H-indole] |  |  |  | 696 | 614 | 907 |  | 
